In patent publication US5061794A, “Cephalosporin derivatives, and antibacterial agents” (priority 1986, dated 1991) one finds MIC data, which are given here for three molecules.

Structures can show the parent of a compound that is named as a salt. Where two headings read alike, the source gives them in different places. Where only a bound is given, the exact number is not on record here.

One assay concerns E. coli CSH2 (RK1). Put plainly: microbe, parasite or virus in culture. The assay is classed as cell-based. The conditions noted are these: Escherichia coli, 16 h, read-out: Minimum Inhibitory Concentration (MIC), *E. coli CSH2 (RK1), lactamase-producing strain; 10^6 CFU/ml. Put shortly:
(§1)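 Inoculum 10^6 CFU/ml; medium Mueller Hinton agar with graded antibiotic; 37° C./16 h; endpoint MIC (μg/ml).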

The next assay deals with E. coli CSH(RE45). Put plainly: microbe, parasite or virus in culture. The assay is classed as cell-based. The conditions noted are these: Escherichia coli, 16 h, read-out: Minimum Inhibitory Concentration (MIC), *E. coli CSH(RE45), lactamase-producing strain; 10^6 CFU/ml. The procedure, abridged:
as §1

In a further assay the test system is Ps. aeruginosa AK 109. Put plainly: in vitro antibacterial activity, agar plate dilution method (MIC). In kind it is cell-based, Pseudomonas aeruginosa. The conditions noted are these: Pseudomonas aeruginosa, AK109, 16 h, read-out: Minimum Inhibitory Concentration (MIC). The procedure, abridged: as §1
The next assay deals with Ps. aeruginosa AKR17. The description is as above. The assay is classed as cell-based, Pseudomonas aeruginosa. The conditions noted are these: Pseudomonas aeruginosa, 10^6 CFU/ml. The procedure, abridged:
as §1

The subject of another assay is Ps. aeruginosa IF03445. Described as above. The assay is classed as cell-based, Pseudomonas aeruginosa. The conditions noted are these: Pseudomonas aeruginosa, IF03445, 16 h, read-out: Minimum Inhibitory Concentration (MIC), Ps. aeruginosa IF03445; 10^6 CFU/ml. The procedure, abridged: as §1
Another assay deals with A. calcoaceticus No. 4. The description is as above. The assay is classed as cell-based, Acinetobacter calcoaceticus. The conditions noted are these: Acinetobacter calcoaceticus, NO.4, 16 h, 10^6 CFU/ml. The procedure, abridged: as §1
Another assay relates to E. coli GN5482. The assay is described as above. In kind it is cell-based. The conditions noted are these: Escherichia coli, GN5482, 16 h. Put shortly: as §1
For a further assay, the system named is K. pneumoniae PCI-602. Described as above. The conditions noted are these: Klebsiella pneumoniae, PCI602, 16 h, read-out: Minimum Inhibitory Concentration (MIC), K. pneumoniae PCI-602; 10^6 CFU/ml. In kind it is cell-based. The procedure, abridged: as §1
In a further assay the test system is P. vulgaris No. 33. Described as above. In kind it is cell-based. The conditions noted are these: Proteus vulgaris, NO.33, 16 h, read-out: Minimum Inhibitory Concentration (MIC), *P. vulgaris No. 33, lactamase-producing strain; 10^6 CFU/ml. Put shortly:
as §1

The test system of the next assay is S. marcescens IAM 1184. The assay is described as above. The conditions noted are these: Serratia marcescens, IAM1184, 16 h, read-out: Minimum Inhibitory Concentration (MIC). The assay is classed as cell-based. The procedure, abridged: as §1
Another assay relates to E. cloacae Nek 39. The description is as above. In kind it is cell-based. The conditions noted are these: Enterobacter cloacae, NEK39, 16 h, read-out: Minimum Inhibitory Concentration (MIC), *E. cloacae Nek 39, lactamase-producing strain; 10^6 CFU/ml. The procedure, abridged: as §1
The subject of another assay is E. cloacae 963. The description is as above. The assay is classed as cell-based. The conditions noted are these: 10^6 CFU/ml. Put shortly:
as §1

For another assay, the system named is E. coli NIHJ JC2. The description is as above. In kind it is cell-based. The conditions noted are these: Escherichia coli, NIHJJC2, 16 h, read-out: Minimum Inhibitory Concentration (MIC), E. coli NIHJ JC2, 10^6 CFU/ml, 37° C. Put shortly:
as §1

The subject of the next assay is M. morganii GN5407. The description is as above. In kind it is cell-based. The conditions noted are these: Morganella morganii, GN5407, 16 h, read-out: Minimum Inhibitory Concentration (MIC), *M. morganii GN5407, lactamase-producing strain; 10^6 CFU/ml. Put shortly: as §1
Another assay deals with K. pneumoniae No. 42. The assay is described as above. The conditions noted are these: Klebsiella pneumoniae, 10^6 CFU/ml. In kind it is cell-based. The procedure, abridged: as §1
The test system of another assay is S. marcescens No. 16-2. The assay is described as above. The assay is classed as cell-based. The conditions noted are these: Serratia marcescens, NO.162, 16 h, read-out: Minimum Inhibitory Concentration (MIC). Put shortly: as §1
The test system of a further assay is P. vulgaris HX-19. The assay is described as above. In kind it is cell-based. The conditions noted are these: Proteus vulgaris, HX19, 16 h, P. vulgaris HX-19; 10^6 CFU/ml; read-out: Minimum Inhibitory Concentration (MIC). The procedure, abridged:
as §1

The next assay deals with K. oxytoca GN10650. The description is as above. In kind it is cell-based. The conditions noted are these: Klebsiella oxytoca, GN10650, 16 h, read-out: Minimum Inhibitory Concentration (MIC), *K. oxytoca GN10650, lactamase-producing strain; 10^6 CFU/ml. The procedure, abridged: as §1
The subject of the next assay is S. aureus 209P NIHJ-JC1. Described as above. The conditions noted are these: Staphylococcus aureus, 16 h. The assay is classed as cell-based. The procedure, abridged:
as §1

For a further assay, the system named is Ps. cepacia 23. Described as above. In kind it is cell-based, Pseudomonas cepacia. The conditions noted are these: read-out: Minimum Inhibitory Concentration (MIC). The procedure, abridged:
as §1

The mark [1] stands for this setting: Ps. aeruginosa AK 109, 10^6 CFU/ml.
The mark [2] stands for this setting: 16 h, Ps. aeruginosa AKR17, read-out: Minimum Inhibitory Concentration (MIC).
Setting [3] is: read-out: Minimum Inhibitory Concentration (MIC), A. calcoaceticus No. 4.
[4] abbreviates: read-out: Minimum Inhibitory Concentration (MIC).
The mark [5] stands for this setting: Enterobacter cloacae, 963, 16 h, read-out: Minimum Inhibitory Concentration (MIC), E. cloacae 963.
[6] abbreviates: S. marcescens IAM 1184, 10^6 CFU/ml.
Setting [7] is: NO.42, 16 h, read-out: Minimum Inhibitory Concentration (MIC), *K. pneumoniae No. 42, lactamase-producing strain.
The mark [8] stands for this setting: Burkholderia cepacia, 16 h, Ps. cepacia 23, 10^6 CFU/ml.

As to `C#CCO/N=C(\C(=O)N[C@@H]1C(=O)N2C(C(=O)O)=C(CSc3nnc(-c4ccc(O)c(O)c4)s3)CS[C@H]12)c1csc(N)n1` [Ex. 31, sodium 7β-[2-(2-aminothiazol-4-yl)-2-proparqyloxyiminoacetamido]-3-[5-(3,4-dihvdroxyphenyl)-1,3,4-thiadiazol-2-yl]thiomethyl-3-cephem-4-carboxylate], the MIC was less than 0.006 µg/mL in the assay with E. coli CSH2 (RK1); 0.0125 µg/mL in the assay with E. coli CSH(RE45); 0.2 µg/mL in the assay on Ps. aeruginosa AK 109 (setting [1]); 100 µg/mL in the assay with Ps. aeruginosa AKR17 (setting [2]); 0.78 µg/mL in the assay with Ps. aeruginosa IF03445; 0.1 µg/mL with A. calcoaceticus No. 4 (setting [3]). Also, the MIC with E. coli GN5482 (setting [4]) was 0.39 µg/mL; in the assay with K. pneumoniae PCI-602 it was less than 0.006 µg/mL; in the assay with P. vulgaris No. 33, 0.025 µg/mL; in the assay on S. marcescens IAM 1184, 0.0125 µg/mL; in the assay on E. cloacae Nek 39, 0.2 µg/mL; in the assay with E. cloacae 963 (setting [5]) it was 0.0125 µg/mL. Moreover, the MIC in the assay on E. coli NIHJ JC2 is 0.1 µg/mL; in the assay with M. morganii GN5407 it was 0.0125 µg/mL; in the assay on K. pneumoniae No. 42 (16 h, *K. pneumoniae No. 42, lactamase-producing strain, read-out: Minimum Inhibitory Concentration (MIC)), less than 0.006 µg/mL; with S. marcescens No. 16-2, 0.39 µg/mL; with P. vulgaris HX-19, less than 0.006 µg/mL; with K. oxytoca GN10650, 0.78 µg/mL. Also, the MIC with S. aureus 209P NIHJ-JC1 (read-out: Minimum Inhibitory Concentration (MIC), S. aureus 209P NIHJ-JC1, 10^6 CFU/ml, 37° C., 16 hours) came out at 0.78 µg/mL; in the assay on Ps. cepacia 23 (Burkholderia cepacia, 23, 16 h), 0.0125 µg/mL.

Consider `Nc1nc(/C(=N/OCc2ccccc2)C(=O)N[C@@H]2C(=O)N3C(C(=O)O)=C(CSc4nnc(-c5ccc(O)c(O)c5)s4)CS[C@H]23)cs1` [Ex. 32, 7β-[2-(2-aminothiazol-4-yl)-2-benzyloxviminoacetamido]-3-[5-(3,4-dihydroxvphenvl)-1,3,4-thiadiazol-2-yl]thiomethyl-3-cephem-4-carboxylic acid trifluoroacetate], for which the MIC in the assay on E. coli CSH2 (RK1) was less than 0.006 µg/mL; in the assay on E. coli CSH(RE45) it was 1.56 µg/mL; with Ps. aeruginosa AK 109, 0.39 µg/mL; with Ps. aeruginosa AKR17 (setting [2]), greater than 100 µg/mL; in the assay on Ps. aeruginosa IF03445, 0.78 µg/mL; in the assay on A. calcoaceticus No. 4 (setting [3]), 0.39 µg/mL. Also, the MIC was 0.78 µg/mL in the assay on E. coli GN5482 (read-out: Minimum Inhibitory Concentration (MIC), *E. coli GN5482, lactamase-producing strain, 10^6 CFU/ml); less than 0.006 µg/mL in the assay with K. pneumoniae PCI-602; 0.2 µg/mL in the assay on P. vulgaris No. 33; 0.025 µg/mL with S. marcescens IAM 1184 (setting [6]); 0.2 µg/mL in the assay with E. cloacae Nek 39; 0.1 µg/mL with E. cloacae 963 (Enterobacter cloacae, 16 h, E. cloacae 963, read-out: Minimum Inhibitory Concentration (MIC)). Also, the MIC turned out to be 0.39 µg/mL in the assay on E. coli NIHJ JC2; 0.1 µg/mL with M. morganii GN5407; 0.0125 µg/mL with K. pneumoniae No. 42 (setting [7]); 12.5 µg/mL with S. marcescens No. 16-2; 0.0125 µg/mL in the assay on P. vulgaris HX-19; 0.39 µg/mL with K. oxytoca GN10650. Also, the MIC was 0.39 µg/mL with S. aureus 209P NIHJ-JC1 (setting [4]) and less than 0.006 µg/mL in the assay on Ps. cepacia 23 (setting [8]).

As for `Nc1nc(/C(=N/OC2(C(=O)O)CC2)C(=O)N[C@@H]2C(=O)N3C(C(=O)O)=C(CSc4nnc(-c5ccc(O)c(O)c5)s4)CS[C@H]23)cs1` [Ex. 35, disodium 7β-[2-(2-aminothiazol-4-yl)-2-(1-carboxylate-1-cyclooropoxyimino)acetamido]-3-[5-(3,4-dihydroxyphenyl)-1,3,4-thiadiazol-2-yl]thiomethyl-3-cephem-4-carboxylate], the MIC is less than 0.006 µg/mL in the assay with E. coli CSH2 (RK1); less than 0.006 µg/mL in the assay with E. coli CSH(RE45); 0.2 µg/mL in the assay with Ps. aeruginosa AK 109 (setting [1]); 1.56 µg/mL with Ps. aeruginosa AKR17 (AKR17, 16 h, read-out: Minimum Inhibitory Concentration (MIC), Ps. aeruginosa AKR17); 0.39 µg/mL in the assay on Ps. aeruginosa IF03445; 0.05 µg/mL in the assay on A. calcoaceticus No. 4 (A. calcoaceticus No. 4, read-out: Minimum Inhibitory Concentration (MIC)). Moreover, the MIC in the assay with E. coli GN5482 (setting [4]) is 0.39 µg/mL; in the assay on K. pneumoniae PCI-602 it was less than 0.006 µg/mL; in the assay on P. vulgaris No. 33, 0.0125 µg/mL; with S. marcescens IAM 1184 (setting [6]), 0.025 µg/mL; in the assay on E. cloacae Nek 39 it was 0.05 µg/mL; in the assay on E. cloacae 963 (setting [5]), 0.05 µg/mL. Moreover, the MIC in the assay with E. coli NIHJ JC2 is 0.2 µg/mL; with M. morganii GN5407, 0.05 µg/mL; in the assay on K. pneumoniae No. 42 (setting [7]) it was 0.0125 µg/mL; in the assay on S. marcescens No. 16-2, 0.39 µg/mL; with P. vulgaris HX-19, less than 0.006 µg/mL; in the assay on K. oxytoca GN10650, 0.025 µg/mL. The MIC was 12.5 µg/mL in the assay on S. aureus 209P NIHJ-JC1 (setting [4]) and less than 0.006 µg/mL in the assay with Ps. cepacia 23 (setting [8]).
